According to the NIST ThermoML archive (doi:10.1021/je050052+):

Test: excess molar enthalpy (molar enthalpy of mixing); xn = mol fraction of the nth substance listed
Conditions: Liquid, Flow calorimetry

COC(=O)OC [dimethyl carbonate] + CC(C)O
Conditions | excess molar enthalpy [kcal/mol]
298.15 K, 1000 kPa, x1 = 0.05 | 0.1201
298.15 K, 1000 kPa, x1 = 0.1 | 0.222
298.15 K, 1000 kPa, x1 = 0.15 | 0.3028
298.15 K, 1000 kPa, x1 = 0.2 | 0.3695
298.15 K, 1000 kPa, x1 = 0.25 | 0.4209
298.15 K, 1000 kPa, x1 = 0.3 | 0.4599
298.15 K, 1000 kPa, x1 = 0.35 | 0.4899
298.15 K, 1000 kPa, x1 = 0.4 | 0.5097
298.15 K, 1000 kPa, x1 = 0.45 | 0.5212
298.15 K, 1000 kPa, x1 = 0.5 | 0.5264
298.15 K, 1000 kPa, x1 = 0.55 | 0.5191
298.15 K, 1000 kPa, x1 = 0.6 | 0.5048
298.15 K, 1000 kPa, x1 = 0.65 | 0.4805
298.15 K, 1000 kPa, x1 = 0.7 | 0.4459
298.15 K, 1000 kPa, x1 = 0.75 | 0.4012
298.15 K, 1000 kPa, x1 = 0.8 | 0.3425
298.15 K, 1000 kPa, x1 = 0.95 | 0.1068
313.15 K, 100 kPa, x1 = 0.0483 | 0.1117
313.15 K, 100 kPa, x1 = 0.0998 | 0.2227
313.15 K, 100 kPa, x1 = 0.1507 | 0.3146
313.15 K, 100 kPa, x1 = 0.2011 | 0.388
313.15 K, 100 kPa, x1 = 0.2509 | 0.4473
313.15 K, 100 kPa, x1 = 0.3002 | 0.4924
313.15 K, 100 kPa, x1 = 0.3489 | 0.5277
313.15 K, 100 kPa, x1 = 0.4005 | 0.5535
313.15 K, 100 kPa, x1 = 0.4515 | 0.5679
313.15 K, 100 kPa, x1 = 0.4986 | 0.5718
313.15 K, 100 kPa, x1 = 0.5485 | 0.5651
313.15 K, 100 kPa, x1 = 0.6011 | 0.5502
313.15 K, 100 kPa, x1 = 0.6498 | 0.5244
313.15 K, 100 kPa, x1 = 0.7012 | 0.4887
313.15 K, 100 kPa, x1 = 0.7488 | 0.4419
313.15 K, 100 kPa, x1 = 0.8486 | 0.3137
313.15 K, 100 kPa, x1 = 0.9007 | 0.2235
313.15 K, 100 kPa, x1 = 0.9492 | 0.1156
313.15 K, 1000 kPa, x1 = 0.0483 | 0.1108
313.15 K, 1000 kPa, x1 = 0.0998 | 0.2231
313.15 K, 1000 kPa, x1 = 0.1507 | 0.3136
313.15 K, 1000 kPa, x1 = 0.201 | 0.3871
313.15 K, 1000 kPa, x1 = 0.2508 | 0.4465
313.15 K, 1000 kPa, x1 = 0.3 | 0.4932
313.15 K, 1000 kPa, x1 = 0.3487 | 0.5283
313.15 K, 1000 kPa, x1 = 0.4003 | 0.5534
313.15 K, 1000 kPa, x1 = 0.4513 | 0.5642
313.15 K, 1000 kPa, x1 = 0.4984 | 0.5678
313.15 K, 1000 kPa, x1 = 0.5516 | 0.5622
313.15 K, 1000 kPa, x1 = 0.6009 | 0.5476
313.15 K, 1000 kPa, x1 = 0.6497 | 0.5221
313.15 K, 1000 kPa, x1 = 0.7011 | 0.486
313.15 K, 1000 kPa, x1 = 0.7487 | 0.4405
313.15 K, 1000 kPa, x1 = 0.8486 | 0.3109
313.15 K, 1000 kPa, x1 = 0.9007 | 0.2209
313.15 K, 1000 kPa, x1 = 0.9491 | 0.1173
313.15 K, 10000 kPa, x1 = 0.0517 | 0.1095
313.15 K, 10000 kPa, x1 = 0.0992 | 0.212
313.15 K, 10000 kPa, x1 = 0.1499 | 0.303
313.15 K, 10000 kPa, x1 = 0.2 | 0.3768
313.15 K, 10000 kPa, x1 = 0.2497 | 0.4355
313.15 K, 10000 kPa, x1 = 0.2988 | 0.4813
313.15 K, 10000 kPa, x1 = 0.3508 | 0.5177
313.15 K, 10000 kPa, x1 = 0.3989 | 0.5407
313.15 K, 10000 kPa, x1 = 0.4499 | 0.5557
313.15 K, 10000 kPa, x1 = 0.5003 | 0.5598
313.15 K, 10000 kPa, x1 = 0.5501 | 0.5537
313.15 K, 10000 kPa, x1 = 0.5995 | 0.5393
313.15 K, 10000 kPa, x1 = 0.6515 | 0.5131
313.15 K, 10000 kPa, x1 = 0.6998 | 0.48
313.15 K, 10000 kPa, x1 = 0.7507 | 0.4325
313.15 K, 10000 kPa, x1 = 0.8011 | 0.3729
313.15 K, 10000 kPa, x1 = 0.8509 | 0.3054
313.15 K, 10000 kPa, x1 = 0.9001 | 0.2228
313.15 K, 10000 kPa, x1 = 0.9488 | 0.1259
328.15 K, 1000 kPa, x1 = 0.05 | 0.1293
328.15 K, 1000 kPa, x1 = 0.1 | 0.2339
328.15 K, 1000 kPa, x1 = 0.15 | 0.3279
328.15 K, 1000 kPa, x1 = 0.2 | 0.4052
328.15 K, 1000 kPa, x1 = 0.25 | 0.4674
328.15 K, 1000 kPa, x1 = 0.3 | 0.5156
328.15 K, 1000 kPa, x1 = 0.35 | 0.5557
328.15 K, 1000 kPa, x1 = 0.4 | 0.5822
328.15 K, 1000 kPa, x1 = 0.45 | 0.5962
328.15 K, 1000 kPa, x1 = 0.5 | 0.6034
328.15 K, 1000 kPa, x1 = 0.55 | 0.5992
328.15 K, 1000 kPa, x1 = 0.6 | 0.5851
328.15 K, 1000 kPa, x1 = 0.65 | 0.5559
328.15 K, 1000 kPa, x1 = 0.7 | 0.5128
328.15 K, 1000 kPa, x1 = 0.75 | 0.4679
328.15 K, 1000 kPa, x1 = 0.8 | 0.4034
328.15 K, 1000 kPa, x1 = 0.85 | 0.3257
328.15 K, 1000 kPa, x1 = 0.9 | 0.2299
328.15 K, 1000 kPa, x1 = 0.95 | 0.1163
